Assay results reported in patent US9249125B2, “Pyrazole derivatives as p38 MAP inhibitors” (RESPIVERT LIMITED, priority 2012, dated 2016).

Assays:
[1] = system: LPS-induced IL-8 release in d-U937 cells; assay: LPS-induced IL-8 release in d-U937 cells; format: cell-based; settings: Homo sapiens, dU937, read-out: LPS Induced Release of Cytokine in d-937 Cells IL-8 IC50
Description: U937 cells, a human monocytic cell line, are differentiated into macrophage-type cells by incubation with PMA (100 ng/mL) for 48 to 72 hr. Cells are pre-incubated with final concentrations of test compound for 2 hr and are then stimulated with LPS (0.1 μg/mL) (from E. coli: O111:B4, Sigma) for 4 hr. The supernatant is collected for determination of TNFα and IL-8 concentrations by sandwich ELISA (Duo-set, R&D systems). […] The relative 50% effective concentration (REC50) is determined from the resultant concentration-response curve. The inhibition of IL-8 production is calculated at each concentration of test compound by comparison with vehicle control. […] (b) LPS-Induced TNFα/IL-8 Release in PBMC Cells

d-U937 cells = assay: Cell viability: MTT assay; format: cell-based, human; settings: 1 μg/mL
Description: Differentiated U937 cells are pre-incubated with each test compound (final concentration 1 μg/mL or 10 μg/mL in 200 μL media indicated below) under two protocols: the first for 4 hr in 5% FCS RPMI1640 media and the second in 10% FCS RPMI1640 media for 24 h. The supernatant is replaced with new media (200 μL) and MTT stock solution (10 μL, 5 mg/mL) is added to each well. After incubation for 1 hr the media are removed, DMSO (200 μL) is added to each well and the plates are shaken lightly for 1 hr prior to reading the absorbance at 550 nm. The percentage loss of cell viability is calculated for each well relative to vehicle (0.5% DMSO) treatment. Consequently an apparent increase in cell viability for drug treatment relative to vehicle is tabulated as a negative percentage.

[2] = system: Poly I:C-induced ICAM-1 expression in BEAS2B cells; assay: Poly I:C-induced ICAM-1 expression in BEAS2B cells; format: cell-based; settings: Homo sapiens, BEAS-2B, read-out: Poly IC induced ICAM1 in BEAS2B IC50
Description: Poly I:C is used in these studies as a simple, RNA virus mimic. Poly I:C-Oligofectamine mixture (1 μg/mL Poly I:C, ±2% Oligofectamine, 25 uL) (Invivogen Ltd., San Diego, Calif., and Invitrogen, Carlsbad, Calif., respectively) is transfected into BEAS2B cells (human bronchial epithelial cells, ATCC). Cells are pre-incubated with final concentrations of test compounds for 2 hr and the level of ICAM1 expression on the cell surface is determined by cell-based ELISA. At a time point 18 hr after poly I:C transfection, cells are fixed with 4% formaldehyde in PBS (100 μL) and then endogenous peroxidase is quenched by the addition of washing buffer (100 μL, 0.05% Tween in PBS: PBS-Tween) containing 0.1% sodium azide and 1% hydrogen peroxide. Cells are washed with wash-buffer (3×200 μL). and after blocking the wells with 5% milk in PBS-Tween (100 μL) for 1 hr, the cells are incubated with anti-human ICAM-1 antibody (50 μL) (Cell Signaling Technology, Danvers, Mass.) in 1% BSA PBS overnight at 4° C.
The cells are washed with PBS-Tween (3×200 μL) and incubated with the secondary antibody (100 μL) (HRP-conjugated anti-rabbit IgG, Dako Ltd., Glostrup, Denmark). The cells are then incubated with of substrate (50 μL) for 2-20 min, followed by the addition of stop solution (50 μL, 1N H2SO4). The ICAM-1 signal is detected by reading and reading the absorbance at 450 nm against a reference wavelength of 655 nm using a spectrophotometer. The cells are then washed with PBS-Tween (3×200 μL) and total cell numbers in each well are determined by reading absorbance at 595 nm after Crystal Violet staining (50 μL of a 2% solution in PBS) and elution by 1% SDS solution (100 μL) in distilled water. The measured OD 450-655 readings are corrected for cell number by dividing with the OD595 reading in each well.

p38 MAPKα = p38 MAPKα (Homo sapiens (Human), UniProt Q16539); assay: p38 MAPKα enzyme inhibition (FRET, Z-LYTE); format: biochemical
Description: (§1) The enzyme inhibitory activities of compounds disclosed herein are determined by FRET using synthetic peptides labelled with both donor and acceptor fluorophores (Z-LYTE, Invitrogen Ltd., Paisley, UK).
The inhibitory activities of test compounds against the p38 MAPKα isoform (MAPK14: Invitrogen), are evaluated indirectly by determining the level of activation/phosphorylation of the down-stream molecule, MAPKAP-K2. The p38 MAPKα protein (80 ng/mL, 2.5 μL) is mixed with the test compound (2.5 μL of either 4 μg/mL, 0.4 μg/mL, 0.04 μg/mL or 0.004 μg/mL) for 2 hr at RT. […] The mixture is incubated for 1 hr at RT. Development reagent (protease, 5 μL) is added for 1 hr prior to detection in a fluorescence microplate reader (Varioskan® Flash, ThermoFisher Scientific).
(§2) In all cases, the site-specific protease cleaves non-phosphorylated peptide only and eliminates the FRET signal. Phosphorylation levels of each reaction are calculated using the ratio of coumarin emission (donor) over fluorescein emission (acceptor), for which low ratios indicate high phosphorylation and high ratios indicate low phosphorylation levels.

cSrc = cSrc (Homo sapiens (Human), UniProt P12931); assay: c-Src enzyme inhibition (FRET, Z-LYTE); format: biochemical
Description: as §1
(§3) The relevant enzyme (3000 ng/mL or 2000 ng/mL respectively, 2.5 μL) is incubated with the test compound (either 4 μg/mL, 0.4 μg/mL, 0.04 μg/mL, or 0.004 μg/mL, 2.5 μL each) for 2 hr at RT. The FRET peptides (8 μM, 2.5 μL), and appropriate ATP solutions (2.5 μL, 800 μM for c-Src, and 60 μM ATP for Syk) are then added to the enzymes/compound mixtures and incubated for 1 hr. Development reagent (protease, 5 μL) is added for 1 hr prior to detection in a fluorescence microplate reader (Varioskan® Flash, ThermoFisher Scientific).
as §2

GSK3α = GSK3α (Homo sapiens (Human), UniProt P49840); assay: GSK 3α enzyme inhibition (FRET, Z-LYTE); format: biochemical
Description: as §1
The inhibitory activities of compounds of the invention against the GSK 3α enzyme isoform (Invitrogen), are evaluated by determining the level of activation/phosphorylation of the target peptide. The GSK3-α protein (500 ng/mL, 2.5 μL) is mixed with the test compound (2.5 μL at either 4 μg/mL, 0.4 μg/mL, 0.04 μg/mL, or 0.004 μg/mL) for 2 hr at RT. The FRET peptide (8 μM, 2.5 μL), which is a phosphorylation target for GSK3α, and ATP (40 μM, 2.5 μL) are then added to the enzyme/compound mixture and the resulting mixture incubated for 1 hr. Development reagent (protease, 5 μL) is added for 1 hr prior to detection in a fluorescence microplate reader (Varioskan® Flash, ThermoFisher Scientific).
as §2

Syk = Syk (Homo sapiens (Human), UniProt P43405); assay: Syk enzyme inhibition (FRET, Z-LYTE); format: biochemical
Description: as §1, §3, §2

Sequence of p38 MAPKα (Q16539 whole entry): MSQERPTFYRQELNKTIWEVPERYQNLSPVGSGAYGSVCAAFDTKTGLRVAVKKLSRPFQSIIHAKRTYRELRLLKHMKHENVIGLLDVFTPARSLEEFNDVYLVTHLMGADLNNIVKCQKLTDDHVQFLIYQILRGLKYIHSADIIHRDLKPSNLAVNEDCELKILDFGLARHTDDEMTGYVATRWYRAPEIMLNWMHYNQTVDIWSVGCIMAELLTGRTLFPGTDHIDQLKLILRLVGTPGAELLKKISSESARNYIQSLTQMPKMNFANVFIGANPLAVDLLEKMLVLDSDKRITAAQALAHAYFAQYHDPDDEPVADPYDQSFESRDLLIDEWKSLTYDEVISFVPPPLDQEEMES
Sequence of cSrc (P12931 whole entry, looked up): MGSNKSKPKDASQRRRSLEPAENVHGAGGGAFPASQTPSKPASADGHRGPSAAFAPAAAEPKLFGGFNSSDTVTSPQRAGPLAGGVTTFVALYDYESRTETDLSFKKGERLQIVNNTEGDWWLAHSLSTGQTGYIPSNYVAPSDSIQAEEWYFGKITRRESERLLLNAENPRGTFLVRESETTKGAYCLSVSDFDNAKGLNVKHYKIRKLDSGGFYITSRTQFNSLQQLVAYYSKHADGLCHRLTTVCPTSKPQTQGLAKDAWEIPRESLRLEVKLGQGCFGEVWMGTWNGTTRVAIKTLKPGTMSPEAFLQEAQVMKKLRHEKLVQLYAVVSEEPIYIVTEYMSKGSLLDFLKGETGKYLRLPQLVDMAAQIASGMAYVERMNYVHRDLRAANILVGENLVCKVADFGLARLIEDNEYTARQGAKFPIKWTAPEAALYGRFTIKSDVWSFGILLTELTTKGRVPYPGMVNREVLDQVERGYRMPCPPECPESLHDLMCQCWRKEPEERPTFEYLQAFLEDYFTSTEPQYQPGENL
Sequence of GSK3α (P49840 whole entry): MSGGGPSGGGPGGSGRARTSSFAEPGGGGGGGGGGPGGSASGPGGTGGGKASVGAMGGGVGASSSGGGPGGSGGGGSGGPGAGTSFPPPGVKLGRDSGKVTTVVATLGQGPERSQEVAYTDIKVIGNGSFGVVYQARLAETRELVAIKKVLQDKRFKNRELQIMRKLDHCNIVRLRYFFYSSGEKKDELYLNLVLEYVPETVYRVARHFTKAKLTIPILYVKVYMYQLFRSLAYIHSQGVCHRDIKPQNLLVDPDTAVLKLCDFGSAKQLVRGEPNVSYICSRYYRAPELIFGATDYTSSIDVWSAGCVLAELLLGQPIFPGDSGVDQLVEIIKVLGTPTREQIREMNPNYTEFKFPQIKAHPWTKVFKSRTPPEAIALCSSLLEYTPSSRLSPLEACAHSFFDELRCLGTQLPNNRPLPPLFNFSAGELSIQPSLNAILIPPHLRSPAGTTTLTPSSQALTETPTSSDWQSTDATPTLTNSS

COc1ccc(-n2nc(C3CCOC3)cc2NC(=O)Nc2ccc(Oc3ccnc(Nc4ccc5[nH]ncc5c4)n3)c3ccccc23)cc1 (stereo not drawn) [Example 8, 1-(4-((2-((1H-Indazol-5-yl)amino)pyrimidin-4-yl)oxy)naphthalen-1-yl)-3-(1-(4-methoxyphenyl)-3-(tetrahydrofuran-3-yl)-1H-pyrazol-5-yl)urea]
IC50 [1]: 3.6 nM | MTT Assay Cell viability at time point in d-U937 cells 4 h (d-U937 cells): −ve (−ve and +ve indicate that the value is below and above respectively, the no significant effect threshold, defined as 30% inhibition at 1 μg/mL at the time point indicated.) | MTT Assay Cell viability at time point in d-U937 cells 24 h (d-U937 cells): −ve (−ve and +ve indicate that the value is below and above respectively, the no significant effect threshold, defined as 30% inhibition at 1 μg/mL at the time point indicated.) | IC50 [2]: 16.8 nM | IC50 (p38 MAPKα): 7 nM | IC50 (cSrc): 2 nM | IC50 (GSK3α): 837 nM | IC50 (Syk): 8 nM

CC(C)c1cc(NC(=O)Nc2ccc(Oc3ccnc(Nc4ccc5[nH]ncc5c4)c3)c3ccccc23)n(-c2cccc(OCCN3CCOCC3)c2)n1 [Example 51]
MTT Assay Cell viability at time point in d-U937 cells 4 h (d-U937 cells): −ve (−ve and +ve indicate that the value is below and above respectively, the no significant effect threshold, defined as 30% inhibition at 1 μg/mL at the time point indicated.) | MTT Assay Cell viability at time point in d-U937 cells 24 h (d-U937 cells): −ve (−ve and +ve indicate that the value is below and above respectively, the no significant effect threshold, defined as 30% inhibition at 1 μg/mL at the time point indicated.) | IC50 [2]: 23.8 nM | IC50 (p38 MAPKα): 2 nM | IC50 (cSrc): < 1 nM | IC50 (GSK3α): 4900 nM | IC50 (Syk): < 1 nM

CC(C)(C)c1cc(NC(=O)Nc2ccc(Oc3ccnc(Nc4ccc5[nH]ncc5c4)c3)c3ccccc23)n(-c2cccc(OCCN3CCOCC3)c2)n1 [Example 52]
MTT Assay Cell viability at time point in d-U937 cells 4 h (d-U937 cells): −ve (−ve and +ve indicate that the value is below and above respectively, the no significant effect threshold, defined as 30% inhibition at 1 μg/mL at the time point indicated.) | MTT Assay Cell viability at time point in d-U937 cells 24 h (d-U937 cells): −ve (−ve and +ve indicate that the value is below and above respectively, the no significant effect threshold, defined as 30% inhibition at 1 μg/mL at the time point indicated.) | IC50 [2]: 10.2 nM | IC50 (p38 MAPKα): 22 nM | IC50 (cSrc): 3 nM | IC50 (GSK3α): 4970 nM | IC50 (Syk): 18 nM

Cc1cc(Nc2cc(Oc3ccc(NC(=O)Nc4cc(C(C)(C)C)nn4-c4ccc(OCCN(C)C)cc4)c4ccccc34)ccn2)cc2cn[nH]c12 [Example 58]
MTT Assay Cell viability at time point in d-U937 cells 4 h (d-U937 cells): −ve (−ve and +ve indicate that the value is below and above respectively, the no significant effect threshold, defined as 30% inhibition at 1 μg/mL at the time point indicated.) | MTT Assay Cell viability at time point in d-U937 cells 24 h (d-U937 cells): −ve (−ve and +ve indicate that the value is below and above respectively, the no significant effect threshold, defined as 30% inhibition at 1 μg/mL at the time point indicated.) | IC50 [2]: 8.3 nM | IC50 (p38 MAPKα): < 1 nM | IC50 (cSrc): < 1 nM | IC50 (GSK3α): 1260 nM

Cc1cc(Nc2cc(Oc3ccc(NC(=O)Nc4cc(C(C)(C)C)nn4-c4ccc(OCCN5CCOCC5)cc4)c4ccccc34)ccn2)cc2cn[nH]c12 [Example 68]
MTT Assay Cell viability at time point in d-U937 cells 4 h (d-U937 cells): −ve (−ve and +ve indicate that the value is below and above respectively, the no significant effect threshold, defined as 30% inhibition at 1 μg/mL at the time point indicated.) | MTT Assay Cell viability at time point in d-U937 cells 24 h (d-U937 cells): −ve (−ve and +ve indicate that the value is below and above respectively, the no significant effect threshold, defined as 30% inhibition at 1 μg/mL at the time point indicated.) | IC50 [2]: 7.6 nM | IC50 (p38 MAPKα): 40 nM | IC50 (cSrc): 3 nM | IC50 (GSK3α): 3040 nM | IC50 (Syk): < 1 nM

Cc1cc(Nc2nccc(Oc3ccc(NC(=O)Nc4cc(C(C)(C)C)nn4-c4ccc(OCCN5CCOCC5)cc4)c4ccccc34)n2)cc2cn[nH]c12 [Example 73, 1-(3-(tert-butyl)-1-(4-(2-morpholinoethoxy)phenyl)-1H-pyrazol-5-yl)-3-(4-((2-((7-methyl-1H-indazol-5-yl)amino)pyrimidin-4-yl)oxy)naphthalen-1-yl)urea]
IC50 [1]: 2.6 nM | MTT Assay Cell viability at time point in d-U937 cells 4 h (d-U937 cells): −ve (−ve and +ve indicate that the value is below and above respectively, the no significant effect threshold, defined as 30% inhibition at 1 μg/mL at the time point indicated.) | MTT Assay Cell viability at time point in d-U937 cells 24 h (d-U937 cells): −ve (−ve and +ve indicate that the value is below and above respectively, the no significant effect threshold, defined as 30% inhibition at 1 μg/mL at the time point indicated.) | IC50 [2]: 2.2 nM | IC50 (p38 MAPKα): 69 nM | IC50 (cSrc): 5 nM | IC50 (GSK3α): 1800 nM | IC50 (Syk): 4 nM

Cc1cc(Nc2nccc(Oc3ccc(NC(=O)Nc4cc(C(C)(C)C)nn4-c4ccc(OCCN5CCOCC5)nc4)c4ccccc34)n2)cc2cn[nH]c12 [Example 91, 1-(3-(tert-butyl)-1-(6-(2-morpholinoethoxy)pyridin-3-yl)-1H-pyrazol-5-yl)-3-(4-((2-((7-methyl-1H-indazol-5-yl)amino)pyrimidin-4-yl)oxy)naphthalen-1-yl)urea]
IC50 [1]: 1.6 nM | MTT Assay Cell viability at time point in d-U937 cells 4 h (d-U937 cells): −ve (−ve and +ve indicate that the value is below and above respectively, the no significant effect threshold, defined as 30% inhibition at 1 μg/mL at the time point indicated.) | MTT Assay Cell viability at time point in d-U937 cells 24 h (d-U937 cells): −ve (−ve and +ve indicate that the value is below and above respectively, the no significant effect threshold, defined as 30% inhibition at 1 μg/mL at the time point indicated.) | IC50 [2]: 1.9 nM | IC50 (p38 MAPKα): 20 nM | IC50 (cSrc): 1 nM | IC50 (GSK3α): 1210 nM | IC50 (Syk): 1 nM
